These results are taken from patent US11820773B2, “Tricyclic compounds” (ALIGOS THERAPEUTICS, INC., priority 2020, dated 2023).

By EC50 is commonly meant the midpoint of the concentration-response curve.

For this experiment, the system named is HBV. Kind of experiment: HBV-DNA antiviral assay using HepG2.117 cells (intracellular HBV DNA by qPCR). To be noted: Hepatitis B virus, 72 h, HBV DNA inhibition, 3 days incubation, 2% DMSO. In kind it is cell-based, genotype D HBV. In outline:
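HepG2.117 cells (stable genotype D HBV, Tet-off) seeded without doxycycline, treated next day with 9-point 4-fold dilutions in 2% DMSO for 3 days at 37° C. Intracellular HBV DNA quantified by qPCR against a standard curve; viability by CellTiter-Glo ATP. EC50, EC90, CC50 from variable-slope dose-response fits versus DMSO control.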
On the technique in general: Quantitative PCR measures a nucleic acid by following its amplification.
With `CNC(=O)c1cc(-n2c(=O)c3c(n4ncc(CC(C)C)c24)CN(C(=O)c2ccc(Br)c(C(F)(F)F)c2)[C@H](C)C3)nn1C` (stereo in doubt) [Compound 77a, N,2-dimethyl-5-[rac-(11R)-12-[4-bromo-3-(trifluoromethyl)benzoyl]-5-isobutyl-11-methyl-8-oxo-2,3,7,12-tetrazatricyclo[7.4.0.0^2,6]trideca-1(9),3,5-trien-7-yl]pyrazole-3-carboxamide], the concentration giving a half-maximal response (EC50) is less than 50 nM.
To `CNC(=O)c1cnc(-n2c(=O)c3c(n4ncc(Cc5ccccc5)c24)CN(C(=O)c2ccc(Br)c(C(F)(F)F)c2)[C@H](C)C3)nc1` (stereo in doubt) [Compound 69a, N-methyl-2-[rac-(11R)-5-benzyl-12-[4-bromo-3-(trifluoromethyl)benzoyl]-11-methyl-8-oxo-2,3,7,12-tetrazatricyclo[7.4.0.0^2,6]trideca-1(9),3,5-trien-7-yl]pyrimidine-5-carboxamide] belongs less than 50 nM; to `COP(=O)(OC)OCN(C)C(=O)c1ccc(-n2c(=O)c3c(n4ncc(CC5CC5)c24)CN(C(=O)c2ccc(Br)c(C(F)(F)F)c2)[C@@H](C)C3)cc1` (racemic) [Compound 103, Dimethyl [methyl-[4-[rac-(11S)-12-[4-bromo-3-(trifluoromethyl)benzoyl]-5-(cyclopropylmethyl)-11-methyl-8-oxo-2,3,7,12-tetrazatricyclo[7.4.0.0^2,6]trideca-1(9),3,5-trien-7-yl]benzoyl]amino]methyl Phosphate], more than 5000 nM; to `Cc1nnc(-c2ccc(-n3c(=O)c4c(n5ncc(CC(C)C)c35)CN(C(=O)c3ccc(Cl)c(C(F)(F)F)c3)[C@H](C)C4)cc2)[nH]1` (stereo in doubt) [Compound 65a, rac-(11R)-12-[4-chloro-3-(trifluoromethyl)benzoyl]-5-isobutyl-11-methyl-7-[4-(5-methyl-4H-1,2,4-triazol-3-yl)phenyl]-2,3,7,12-tetrazatricyclo[7.4.0.0^2,6]trideca-1(9),3,5-trien-8-one], less than 50 nM.
To `Cn1cncc1-c1ccc(-n2c(=O)c3c(n4ncc(Cc5ccccc5)c24)CN(C(=O)c2ccc(Br)c(C(F)(F)F)c2)CC3)cc1` [Compound 33, 5-benzyl-12-[4-bromo-3-(trifluoromethyl)benzoyl]-7-[4-(3-methylimidazol-4-yl)phenyl]-2,3,7,12-tetrazatricyclo[7.4.0.0^2,6]trideca-1(9),3,5-trien-8-one] belongs less than 50 nM; to `C[C@H]1Cc2c(n3ncc(Cc4ccccc4)c3n(-c3ccc(-c4n[nH]c(=O)n4C)cc3)c2=O)CN1C(=O)c1ccc(Br)c(C(F)(F)F)c1` (stereo in doubt) [Compound 58b, rac-(11S)-5-benzyl-12-[4-bromo-3-(trifluoromethyl)benzoyl]-11-methyl-7-[4-(4-methyl-5-oxo-1H-1,2,4-triazol-3-yl)phenyl]-2,3,7,12-tetrazatricyclo[7.4.0.0^2,6]trideca-1(9),3,5-trien-8-one], less than 50 nM.
To `C[C@H]1Cc2c(n3ncc(CC4CC4)c3n(-c3ccc(C(=O)N(C)CO)cc3)c2=O)CN1C(=O)c1ccc(Br)c(C(F)(F)F)c1` (stereo in doubt) [Compound 91, N-(hydroxymethyl)-N-methyl-4-[rac-(11S)-12-[4-bromo-3-(trifluoromethyl)benzoyl]-5-(cyclopropylmethyl)-11-methyl-8-oxo-2,3,7,12-tetrazatricyclo[7.4.0.0^2,6]trideca-1 (9),3,5-trien-7-yl]benzamide] belongs more than 5000 nM; to `Cc1nnc(-c2ccc(-n3c(=O)c4c(n5ncc(Cc6ccccc6)c35)CN(C(=O)c3ccc(Br)c(C(F)(F)F)c3)[C@H](C)C4)cc2)[nH]1` (stereo in doubt) [Compound 47a, rac-(11R)-5-benzyl-12-[4-bromo-3-(trifluoromethyl)benzoyl]-11-methyl-7-[4-(5-methyl-4H-1,2,4-triazol-3-yl)phenyl]-2,3,7,12-tetrazatricyclo[7.4.0.0^2,6]trideca-1(9),3,5-trien-8-one], less than 50 nM; to `CC(C)Cc1cnn2c3c(c(=O)n(-c4ccc(-c5nncn5C)cc4)c12)C[C@H](C)N(C(=O)c1ccc(Cl)c(C(F)(F)F)c1)C3` (stereo in doubt) [Compound 67b, rac-(11S)-12-[4-chloro-3-(trifluoromethyl)benzoyl]-5-isobutyl-11-methyl-7-[4-(4-methyl-1,2,4-triazol-3-yl)phenyl]-2,3,7,12-tetrazatricyclo[7.4.0.0^2,6]trideca-1(9),3,5-trien-8-one], 50 to 500 nM.
Consider `CNC(=O)c1cnc(-n2c(=O)c3c(n4ncc(CC(C)C)c24)CN(C(=O)c2ccc(Br)c(C(F)(F)F)c2)[C@@H](C)C3)cn1` (stereo in doubt) [Compound 89b, [rac-(11S)-12-[4-bromo-3-(trifluoromethyl)benzoyl]-5-isobutyl-11-methyl-8-oxo-2,3,7,12-tetrazatricyclo[7.4.0.0^2,6]trideca-1(9),3,5-trien-7-yl]pyrazine-2-carboxamide], for which the EC50 is 50 to 500 nM.
To `Cc1nnc(-c2ccc(-n3c(=O)c4c(n5ncc(Cc6ccccc6)c35)CN(C(=O)c3ccc(Br)c(C(F)(F)F)c3)[C@@H](C)C4)cc2)[nH]1` (stereo in doubt) [Compound 47b, rac-(11S)-5-benzyl-12-[4-bromo-3-(trifluoromethyl)benzoyl]-11-methyl-7-[4-(5-methyl-4H-1,2,4-triazol-3-yl)phenyl]-2,3,7,12-tetrazatricyclo[7.4.0.0^2,6]trideca-1(9),3,5-trien-8-one] belongs less than 50 nM; to `CNC(=O)c1ccc(-n2c(=O)c3c(n4ncc(Cc5ccccc5)c24)CN(C(=O)c2ccc(Br)c(C(F)(F)F)c2)[C@@H](C)C3)nc1` (stereo in doubt) [Compound 109b, N-methyl-6-[rac-(11S)-5-benzyl-12-[4-bromo-3-(trifluoromethyl)benzoyl]-11-methyl-8-oxo-2,3,7,12-tetrazatricyclo[7.4.0.0^2,6]trideca-1(9),3,5-trien-7-yl]pyridine-3-carboxamide], less than 50 nM.
To `Cc1cnn(-c2ccc(-n3c(=O)c4c(n5ncc(Cc6ccccc6)c35)CN(C(=O)c3ccc(Br)c(Cl)c3)CC4)cc2)c1` [Compound 7, 5-benzyl-12-(4-bromo-3-chloro-benzoyl)-7-[4-(4-methylpyrazol-1-yl)phenyl]-2,3,7,12-tetrazatricyclo[7.4.0.0^2,6]trideca-1(9),3,5-trien-8-one] belongs less than 50 nM; to `Cc1cnn(-c2ccc(-n3c(=O)c4c(n5ncc(CC(C)C)c35)CN(C(=O)c3ccc(Br)c(C(F)(F)F)c3)[C@H](C)C4)cc2)n1` (stereo in doubt) [Compound 99a, rac-(11R)-12-[4-bromo-3-(trifluoromethyl)benzoyl]-5-isobutyl-11-methyl-7-[4-(4-methyltriazol-2-yl)phenyl]-2,3,7,12-tetrazatricyclo[7.4.0.0^2,6]trideca-1(9),3,5-trien-8-one], less than 50 nM; to `C[C@@H]1Cc2c(n3ncc(Cc4ccccc4)c3n(-c3ccc(-c4nnc(C(F)(F)F)[nH]4)cc3)c2=O)CN1C(=O)c1ccc(Br)c(C(F)(F)F)c1` (stereo in doubt) [Compound 74a, rac-(11R)-5-benzyl-12-[4-bromo-3-(trifluoromethyl)benzoyl]-11-methyl-7-[4-[5-(trifluoromethyl)-4H-1,2,4-triazol-3-yl]phenyl]-2,3,7,12-tetrazatricyclo[7.4.0.0^2,6]trideca-1(9),3,5-trien-8-one], less than 50 nM.
